Source: US8889704B2 (Array BioPharma Inc., priority 2011, dated 2014)
Structures can show the parent of a compound that is named as a salt.

How the values were obtained:
Assay type in all cases: biochemical
[1] = target: T1, GST-tagged recombinant full-length human Pim-2 (Homo sapiens, UniProt Q9P1W9); assay: PIM-2 Assay (as Example A); settings: averaged IC50; 4 μM ATP, 1.0 μM PIM2tide, 1.5 nM Pim-2
T1 construct: GST-tagged recombinant full-length human Pim-2; GST
Method in brief: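 Radiometric filter-binding assay: GST-tagged full-length human Pim-2 (1.5 nM) phosphorylates 1.0 μM PIM2tide with 4 μM [γ-33P]ATP for 60 min at 22 °C in pH 7.4 MOPS buffer, 2% DMSO. 10-point 3-fold dilutions from 10 μM top dose; IC50 from 4-parameter fit of percent of control.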

PIM-1 = PIM-1 (Homo sapiens, UniProt P11309); assay: Enzyme PIM-1 Assay ([33P]ATP incorporation into PIM2tide, filter plate); settings: averaged IC50; 35 μM ATP, 7.5 μM PIM2tide, 0.25 nM PIM-1, 60 min at 22° C.
Chain of PIM-1 (P11309 whole entry, species assumed): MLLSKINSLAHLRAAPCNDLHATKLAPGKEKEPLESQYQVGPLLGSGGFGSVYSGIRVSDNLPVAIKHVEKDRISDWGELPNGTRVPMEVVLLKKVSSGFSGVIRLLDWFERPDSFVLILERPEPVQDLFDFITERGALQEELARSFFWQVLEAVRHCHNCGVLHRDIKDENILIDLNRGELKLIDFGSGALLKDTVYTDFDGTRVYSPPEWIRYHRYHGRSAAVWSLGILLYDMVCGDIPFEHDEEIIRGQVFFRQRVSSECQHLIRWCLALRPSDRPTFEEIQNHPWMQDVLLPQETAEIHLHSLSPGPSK
Method in brief: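 Radiometric assay: 0.25 nM PIM-1 phosphorylates 7.5 μM PIM2tide with 35 μM [γ-33P]ATP in 20 mM MOPS pH 7.4, 10 mM MgCl2, 1 mM DTT, 0.005% Tween-20, 60 min at 22 °C. Product captured on P81 filters, scintillation counted; 10-point 3-fold curve from 10 μM top, 2% DMSO, IC50 by 4-parameter logistic fit of POC.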

recombinant rat PIM-3 = recombinant rat PIM-3 (Rattus norvegicus, UniProt O70444); assay: PIM-3 Assay (as Example A); settings: averaged IC50; 30 μM ATP, 3.75 μM PIM2tide, 0.5 nM PIM-3
Method in brief: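 Recombinant rat PIM-3 (0.5 nM) with 3.75 μM PIM2tide and 30 μM [γ-33P]ATP in MOPS pH 7.4 buffer, 60 min at 22 °C; labelled peptide captured on phosphocellulose filters and counted by scintillation. 10-point curve (top dose 10 μM, 2% DMSO); IC50 from 4-parameter fit of percent of control.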

T1 sequence (Q9P1W9 whole entry): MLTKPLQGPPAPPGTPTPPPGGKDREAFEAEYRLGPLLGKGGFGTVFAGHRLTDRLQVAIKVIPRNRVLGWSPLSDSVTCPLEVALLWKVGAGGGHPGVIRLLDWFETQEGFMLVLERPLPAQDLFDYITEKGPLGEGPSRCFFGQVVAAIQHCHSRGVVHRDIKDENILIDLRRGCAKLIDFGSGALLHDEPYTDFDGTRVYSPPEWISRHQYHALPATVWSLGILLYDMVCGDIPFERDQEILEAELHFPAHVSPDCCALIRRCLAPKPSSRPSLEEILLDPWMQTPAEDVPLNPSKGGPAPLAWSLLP

| Structure (SMILES) | IC50 [1] | IC50 (PIM-1) | IC50 (recombinant rat PIM-3) |
| --- | --- | --- | --- |
| CC(C)Oc1cccc2ccc(-c3nnc4ccc([C@H](N5CC[C@@H](O)C5)C(F)(F)F)cn34)nc12 [Example 103, (R)-1-((S)-2,2,2-trifluoro-1-(3-(8-isopropoxyquinolin-2-yl)-[1,2,4]triazolo[4,3-a]pyridin-6-yl)ethyl)pyrrolidin-3-ol] | > 100 nM | 0.1 nM | 3.1 nM |
| CO[C@@H](C)COc1cccc2ccc(-c3nnc4ccc([C@@H](N5CC[C@H](N)C5)C(F)(F)F)cn34)nc12 [Example 212, (S)-1-((R)-2,2,2-trifluoro-1-(3-(8-((S)-2-methoxypropoxy)quinolin-2-yl)-[1,2,4]triazolo[4,3-a]pyridin-6-yl)ethyl)pyrrolidin-3-amine dihydrochloride] | 72 nM | 0.14 nM | 0.3 nM |
| COC[C@H](C)Oc1ccc2ccc(-c3nnc4ccc([C@@H](N5CC[C@H](N)C5)C(F)(F)F)cn34)nc2c1 [Example 150, (S)-1-((R)-2,2,2-trifluoro-1-(3-(7-((S)-1-methoxypropan-2-yloxy)quinolin-2-yl)-[1,2,4]triazolo[4,3-a]pyridin-6-yl)ethyl)pyrrolidin-3-amine dihydrochloride] | > 100 nM | 0.41 nM | 3.5 nM |
| CN[C@H]1CCN(C(c2ccc3nnc(-c4ccc5cccc(OCC6CC6)c5n4)n3c2)C(F)(F)F)C1 (stereo partly drawn) [Example 20, (3S)-1-(1-(3-(8-(Cyclopropylmethoxy)quinolin-2-yl)-[1,2,4]triazolo[4,3-a]pyridin-6-yl)-2,2,2-trifluoroethyl)-N-methylpyrrolidin-3-amine dihydrochloride] | 131 nM | 0.35 nM | 3.3 nM |
| COC[C@@H](C)Oc1ccc2ccc(-c3nnc4ccc([C@@H](N5CC[C@H](N)C5)C(F)(F)F)cn34)nc2c1F [Example 180, (S)-1-((R)-2,2,2-trifluoro-1-(3-(8-fluoro-7-((R)-1-methoxypropan-2-yloxy)quinolin-2-yl)-[1,2,4]triazolo[4,3-a]pyridin-6-yl)ethyl)pyrrolidin-3-amine dihydrochloride] | > 100 nM | 3.08 nM | 13 nM |
| N[C@H]1CCN([C@H](c2ccc3nnc(-c4ccc5cc(F)c(OC(F)F)cc5n4)n3c2)C(F)(F)F)C1 [Example 215, (S)-1-((R)-1-(3-(7-(difluoromethoxy)-6-fluoroquinolin-2-yl)-[1,2,4]triazolo[4,3-a]pyridin-6-yl)-2,2,2-trifluoroethyl)pyrrolidin-3-amine dihydrochloride] | > 1000 nM | 0.47 nM | 3.1 nM |
| C[C@H](CO)Oc1cccc2ccc(-c3nnc4ccc([C@@H](N5CC[C@H](NCC6CC6)C5)C(F)(F)F)cn34)nc12 [Example 230, dihydrochloride] | 211 nM | 0.64 nM | 3.2 nM |
| N[C@H]1CCN([C@H](c2ccc3nnc(-c4ccc5cccc(OCC6CC6)c5n4)n3c2)C(F)(F)F)C1 (single isomer, unassigned) [Example 11, dihydrochloride] | 75 nM | 0.2 nM | 1.1 nM |
| C[C@]1(N)CCN([C@H](c2ccc3nnc(-c4ccc5cccc(C6CC6)c5n4)n3c2)C(F)(F)F)C1 [Example 97, (S)-1-((R)-1-(3-(8-cyclopropylquinolin-2-yl)-[1,2,4]triazolo[4,3-a]pyridin-6-yl)-2,2,2-trifluoroethyl)-3-methylpyrrolidin-3-amine dihydrochloride] | 65 nM | 0.11 nM | 8.1 nM |
| CCC1(N)CCN([C@H](c2ccc3nnc(-c4ccc5cccc(OC)c5n4)n3c2)C(F)(F)F)C1 (single isomer, unassigned; diastereomer 1) [Example 242, dihydrochloride] | > 1000 nM | 4.2 nM | 21 nM |
